In PubChem BioAssay AID463206 (Broad Institute, 2010) one finds AC50 data, which are given here for 84 compounds.

SMILES strings stand for the structures. Active and inactive are the calls of the source.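 Rule for the calls: active = caspase luminescence falls with dose and the half-maximal concentration AC50 from the fitted curve is at or below a set limit; inconclusive = flat fit at 30 to 70% signal loss, or invalid fit; inactive = AC50 above the limit, or signal rises instead.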 A value given as a limit tells only on which side of the number the result lay.

Broadly, the AC50 is the concentration at which the activity in the assay is half-maximal.

The test system of this test is INS-1E cytokine-induced caspase-3/7, Caspase-Glo luminescence, 48 h. Description: suppression of cytokine-driven beta-cell apoptosis – INS-1E rat cells, luminescence, orthogonal assay for beta-cell apoptosis protection project, dose response (AID 463206).

Take `Cc1cccc(NC(=O)c2ccc([N+](=O)[O-])s2)c1C`: the AC50 is > 26 µM (inactive).

For `COc1ccccc1N1CCN(Cc2cc(Br)c(O)c3ncccc23)CC1`, the AC50 was > 12 µM (inactive). As to `COc1ccccc1NC(=O)Cn1cc(C(=O)c2ccco2)c2ccccc21`, the AC50 was > 26 µM (inactive). Then `O=C(N/N=C/c1sc2ccccc2c1O)c1ccccc1`, with > 26 µM (inactive); and `CCc1cc(CNC(=O)c2ccc3nc(Cc4ccc(OC)c(OC)c4)oc3c2)on1`, with > 26 µM (inactive). Then `CC(C)(C)C1CCC2(CC1)C(C#N)=C(SCC(=O)NC1CCCCC1)NC(=O)C2C#N` (centres undefined), with > 26 µM (inactive); and `CCc1ccc(C2CC(c3cccc(Cl)c3)n3nc(N)nc3N2)cc1` (centres undefined), with > 12 µM (inactive). With `Fc1ccccc1N=C1NN=C(c2ccccc2)CS1`, the AC50 was > 26 µM (inactive). `COc1ccc2c(c1)C(=O)[C@H](O)[C@@H](c1ccc(OC)c(Br)c1)O2`: the AC50 was > 26 µM (inactive). Under `NS(=O)(=O)c1ccc(N/N=C/c2cn(-c3ccccc3)nc2-c2cccs2)c([N+](=O)[O-])c1` stands 19 µM; under `COc1ccc(-c2ccnc(SCC(=O)N3CCN(c4ccccc4)CC3)n2)cc1`, > 26 µM (inactive). Then `CC1=CC(C)(C)N(C(=O)CSc2nnc(-c3ccc(C)cc3)o2)c2ccc(C)cc21`, with > 12 µM (inactive); and `O=C(Nc1ccc(Cl)cc1)/C(=C/c1cccc(O)c1)c1nc2ccccc2s1`, with > 26 µM (inactive). Under `Oc1ccc(CNc2ccccc2)c2cccnc12` stands > 26 µM (inactive); under `O=C(NC1(Cc2ccccc2)CCN(CCCc2ccccc2)C1=O)c1ccccc1` (centres undefined), > 26 µM (inactive). On to `CCN(CC)S(=O)(=O)c1ccc(Oc2ccc(S(=O)(=O)N(CC)CC)cc2)cc1`, for which the AC50 is > 26 µM (inactive). On to `Cc1ccc(C(=O)NC(=S)/C=C2\N(C)c3ccccc3C2(C)C)cc1`, for which the AC50 is > 26 µM (inactive). For `C=CCCc1ccc(C#N)c(SCc2c(C(=O)OCC)c3cc(OC(C)=O)c(Br)cc3n2C)n1`, the AC50 was > 26 µM (inactive). For `Cc1[nH]c(N=Nc2ccccc2)nc1N=Nc1ccccc1`, the AC50 is > 26 µM (inactive). Consider `CN1/C(=C\C(=O)C[n+]2ccc(C(=O)c3ccccc3)cc2)C(C)(C)c2ccccc21`, for which the AC50 was > 26 µM (inactive). For `CC1=CC2/C=C(\C)CCC(O)C(O)/C=C/C(=O)C23C(=O)NC(CC(C)C)C3C1C` (centres undefined), the AC50 was > 26 µM (inactive). Then `Cn1nc(-c2ccccn2)nc2c(=O)n(C)c(=O)nc1-2`, with > 26 µM (inactive); and `Cc1cc(C2CCCCC2)n(O)c(=O)c1`, with > 26 µM (inactive); and `COC(=O)[C@H](CC(C)C)N(Cc1ccccc1)S(=O)(=O)N(Cc1ccccc1)[C@@H](CC(C)C)C(=O)OC`, with > 26 µM (inactive).

Turning to `N#CC1=C(N)N2C(=C(C#N)C1c1ccc(Br)cc1)Nc1ccccc12` (centres undefined), the AC50 was > 26 µM (inactive). Under `CC(Oc1ccc(Cl)cc1Cl)c1nc(-c2ccc(NC(=O)c3cccnc3)cc2)no1` (centres undefined) stands > 26 µM (inactive). Then `COCC1CCCCN1C(=O)c1cc(COc2ccc3ncccc3c2)on1` (centres undefined), with > 26 µM (inactive); and `C/C(=N\NC(=O)c1nnn(-c2nonc2N)c1CN1CCc2ccccc21)c1ccccc1O`, with > 26 µM (inactive); and `O=C(CC(O)(C(F)(F)F)C(F)(F)F)Nc1ccc(Cl)c(Cl)c1`, with > 26 µM (inactive). Under `Cc1cc(C)c2sc(NNC(=O)c3ccc(S(=O)(=O)N4CCc5ccccc5C4)cc3)nc2c1` stands > 26 µM (inactive); under `Cc1ccccc1-c1cc(C(=O)Nc2sc(C)c(C)c2C(N)=O)c2ccccc2n1`, > 26 µM (inactive). As for `CC(=O)c1c(C)oc2c1C(=O)c1ccccc1C2=O`, the AC50 was > 26 µM (inactive). Under `N#CC(C#N)=C(Nc1ccc(F)cc1)SCc1cccc(F)c1` stands > 26 µM (inactive); under `CC(=O)N1CCc2cc(S(=O)(=O)NCCC3=CCCCC3)ccc21`, > 12 µM (inactive); under `Cc1ccccc1OCC(O)CNC1CCC(NCC(O)COc2ccccc2C)CC1` (centres undefined), > 26 µM (inactive). Under `CN(C)C1=NC[C@H](Cc2ccccc2)N1CCCC1CCCCC1` stands > 26 µM (inactive); under `COCCNC(=O)CSC1=N/C(=C/c2ccc(Cl)c(Cl)c2)C(=O)N1c1ccccc1F`, > 26 µM (inactive); under `Cc1ccc(C)c(N2CCN(C(=O)CCCOc3cc(=O)n(C)c4ccccc34)CC2)c1`, > 12 µM (inactive).

With `COc1cc(NC(=O)c2cc3ccccc3cc2O)c(OC)cc1Cl`, the AC50 was > 26 µM (inactive). As to `COc1cccc(F)c1C(C[N+](=O)[O-])c1c(N)n(C)c(=O)n(C)c1=O` (centres undefined), the AC50 was > 26 µM (inactive). Then `CC(=O)CSc1ccc(-c2nc3ccccc3[nH]2)cn1`, with > 26 µM (inactive); and `C=C[C@H](Cc1ccccc1)N(Cc1ccccc1)S(=O)(=O)N(Cc1ccccc1)[C@H](C=C)Cc1ccccc1`, with > 26 µM (inactive); and `O=C1/C(=N\S(=O)(=O)c2cccs2)C([n+]2cccc(Cc3ccccc3)c2)=C([O-])c2ccccc21`, with > 26 µM (inactive).

With `CNC(=S)N(Cc1cccs1)Cc1cc2cc(OC)c(OC)cc2[nH]c1=O`, the AC50 was > 26 µM (inactive). Under `COC(=O)c1ccc(NC(=O)c2cccnc2)cc1` stands > 26 µM (inactive); under `CCCCC1(Cc2ccc([N+](=O)[O-])cc2)C(=O)N(c2ccccc2)N(c2ccccc2)C1=O`, > 26 µM (inactive); under `CCc1cc(C(=O)NC2CCCc3c2cnn3-c2cccc(C)c2C)n(C)n1` (centres undefined), > 26 µM (inactive). In the case of `Cc1cccc(C)c1NC(=O)CNC(=O)c1c(C)nn(C)c1Cl`, the AC50 is > 26 µM (inactive). Then `Cc1cccc(CNc2ncnc3ccc(-c4ccc5c(c4)OCCO5)cc23)c1`, with > 26 µM (inactive).

On to `CCCCCCC(=O)N1C/C=C\C(c2ccc(OC)cc2)N(Cc2ccc(F)cc2)C(=O)[C@H]1Cc1ccccc1` (some centres undefined), for which the AC50 was > 26 µM (inactive). Then `FC(F)(F)c1ccccc1NC(=S)N1CCN(Cc2ccc3c(c2)OCO3)CC1`, with > 26 µM (inactive); and `CCCCc1ccc(N/C(N)=N/c2nc(C)cc(C)n2)cc1`, with > 26 µM (inactive). Under `CCc1ccc(S(=O)(=O)/N=C2/C=C(Sc3ncn[nH]3)C(=O)c3ccccc32)cc1` stands > 26 µM (inactive); under `Oc1[nH]c2ccccc2c1N=NC(=S)N1CCOCC1`, > 26 µM (inactive).

As to `CNC(=O)c1sc(N2N=C3/C(=C/c4ccccc4)CCCC3C2c2ccccc2)nc1C` (centres undefined), the AC50 is > 26 µM (inactive). Under `CC(=O)c1cccc(NS(=O)(=O)c2ccc(N/C=C\C(=O)c3ccc(F)cc3)cc2)c1` stands > 26 µM (inactive); under `C[N+]1=C(/C=C/Nc2ccccc2Cl)C(C)(C)c2ccccc21`, > 26 µM (inactive).

On to `Cc1ccc(Nc2c(-c3ccccn3)nc3cccc(C)n23)cc1`, for which the AC50 was > 26 µM (inactive). Then `O=C(N/N=C/c1cccc(F)c1)c1c(O)c2ccccc2[nH]c1=O`, with > 26 µM (inactive); and `Cc1cc(N2CCN(c3nc4ccccc4s3)CC2)n2ncnc2n1`, with > 26 µM (inactive); and `CCCCCCCC[n+]1cccc2c3ccccc3ccc21`, with > 26 µM (inactive).

Take `C/C(=N\Nc1nc(C)cc(-c2ccccc2)n1)c1ccc(O)cc1`: the AC50 was > 26 µM (inactive). Under `C/C(=N\NC(=O)C(=O)Nc1cccc(Cl)c1)c1ccncc1` stands > 26 µM (inactive); under `Cc1nn(C)c(C)c1CN(Cc1nc(CCC(C)C)no1)C(C)C`, > 26 µM (inactive); under `Cc1cc(N)c2cc(NC(=O)/C=C/c3ccccc3Cl)ccc2n1`, 23 µM. Then `CCCCCCSc1cccc(-c2nc3ccccn3c2NCc2ccccc2)c1`, with > 26 µM (inactive); and `COc1ccc(/C=C/c2cc(-c3ccc(C)cc3)o[n+]2C)cc1`, with > 26 µM (inactive); and `CN(C)c1ccc(/C=C(\C#N)C(=O)OCC(=O)N(C)C2CCS(=O)(=O)C2)cc1` (centres undefined), with > 26 µM (inactive). Under `CCOC(=O)CSc1nc2c(c(=O)[nH]1)C(C)(CC)Cc1ccccc1-2` (centres undefined) stands > 26 µM (inactive); under `N#Cc1ccc(C(=O)Nc2nc(-c3cccs3)c(C(=O)C(F)(F)F)s2)cc1`, > 26 µM (inactive); under `CCCOc1ccc(CSc2nc3ccccc3[nH]2)cc1`, > 26 µM (inactive). For `Cc1cc(C)nc(SCC(=O)NC2=NN=C(c3ccc(Br)cc3)CS2)n1`, the AC50 is > 26 µM (inactive). Then `COc1ccccc1/C=C1\SC(=O)N(CCC(=O)NCCCn2ccnc2)C1=O`, with > 26 µM (inactive); and `CCCCCc1ccc(-c2cn(CN3C(=O)c4ccccc4C3=O)nn2)cc1`, with > 26 µM (inactive); and `Cc1ccc2nc(-c3ccccn3)c(Nc3ccccc3C)n2c1`, with > 26 µM (inactive). Under `COc1ccc(CNC(=O)c2c(C)oc3c2C(=O)c2ccccc2C3=O)cc1` stands > 26 µM (inactive); under `Cc1sc2ncnc(NC3CCN(Cc4ccccc4)CC3)c2c1C`, > 26 µM (inactive); under `Clc1ccccc1Nc1nnc(-c2ccncc2)s1`, > 26 µM (inactive). Then `C#CCOCCOCCOCCNc1nc(N2CCN(C(=O)CCCCCCCCCCNC(=O)[C@H](CCCCN)n3cc(CCO)nn3)CC2)nc(N2CCN(C(=O)CCCCCCCCCCNC(=O)[C@H](CCCCN)n3cc(C[C@@H](C)CC)nn3)CC2)n1`, with > 26 µM (inactive).

In the case of `Cc1ccccc1-[n+]1c(-c2ccccc2)cc(-c2ccccc2)cc1-c1ccccc1`, the AC50 was > 26 µM (inactive). Then `Cc1ccc(C)c(S(=O)(=O)N2CCN(c3ncnc4sccc34)CC2)c1`, with > 26 µM (inactive).

For the compound `Cc1nc2ccccc2cc1OCc1ccc(F)cc1`, the AC50 is > 26 µM (inactive). Under `C/C(=N\Nc1nc(C)cc(-c2ccccc2)n1)c1cccc(N)c1` stands > 26 µM (inactive); under `CCCCNc1cc(C)nc(NCc2ccccc2)n1`, > 26 µM (inactive).
